Test results: patent US20250052985A1, “SYSTEM AND METHOD FOR QUANTITATIVE PHASE IMAGING FOR MULTI-PARAMETRIC SCREENING OF TUMOR THERAPY RESPONSE” (UNIVERSITY OF UTAH RESEARCH FOUNDATION, priority 2023, published 2025)
pEC50: −log10 of the molar value. Several values for one entry are separate records, joined by “and”; a condition that tells them apart may be missing. Equal values may be shown once. Read-outs that look alike come from different tables or passages of the source.

Assays:
[1] = system: MDA-MB-231 cells; test: Quantitative phase imaging (QPI) growth response, MDA-MB-231; format: cell-based; design: DoR QPI: scale not given here; ToR 20 μM: unit not given here; conditions: for Max Asymptote / Min Asymptote: MDA-MB-231, 4-parameter Hill fit of mean SGR vs concentration, one line per replicate; for DoR QPI / ToR 20 μM: MDA-MB-231 cell line; for DoR QPI: depth of response; for ToR 20 μM: time of response at 20 μM
In short: (§1)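 Breast cancer lines imaged noninvasively by DPC-based quantitative phase imaging across 6-point dose responses in triplicate with solvent controls, for 24 h or 72 h after 3 h equilibration, then CellTiter-Glo ATP viability. Mean specific growth rate fitted to a 4-parameter Hill curve for EC50, with an F-test (p<0.01) against a flat line to determine response.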

[2] = system: MCF-7 cells; test: cells; conditions: for Max Asymptote / Min Asymptote: MCF-7, 4-parameter Hill fit of mean SGR vs concentration, one line per replicate; for Hill Slope: MCF-7, Hill fit; for DoR QPI / ToR 20 μM: MCF-7 cell line; for DoR QPI: depth of response; for ToR 20 μM: time of response at 20 μM
In short: as §1

[3] = system: BT-474 cells; test: cells; conditions: for Max Asymptote / Min Asymptote: BT-474, 4-parameter Hill fit of mean SGR vs concentration, one line per replicate; for Hill Slope / log10(EC50): BT-474, Hill fit; for log10(EC50) / EC50: EC50 in μM per Table 1; for DoR QPI / ToR 20 μM: BT-474 cell line; for DoR QPI: depth of response; for ToR 20 μM: time of response at 20 μM; for EC50 / pEC50: Homo sapiens; for pEC50: BT-474, read-out: EC50, QPI, BT-474 cell line, QPI growth rate
In short: as §1

[4] = system: MCF-7 cells; test: CellTiter-Glo (CTG) ATP viability assay, MCF-7; format: cell-based; conditions: for Min Asymptote: MCF-7, Hill fit of luminescence normalized to solvent control, one line per replicate; for EC50: Homo sapiens; for DoR CTG: MCF-7 cell line, depth of response
Method: CTG (e.g., read by the CTG reader 115) is a cell viability assay that quantifies the amount of ATP present at the end of an experiment as an indicator of the number of live cells. The electronic controller 155 measures ATP content in each condition as a readout by a luminescent signal, which is normalized by the luminescence of the control (e.g., a control well) to determine cell viability relative to on-plate controls. In some embodiments, the CTG assay is performed by first removing 100 μL of media from each well on the well-plate 105, which is then replaced with an equal amount of CellTiter-Glo reagent (e.g., Promega, G7572). Assayed plates may be shaken at 500 RPM for 20 minutes and allowed to rest for 10 minutes. In some instances, 100 μL of volume from each well is transferred to a white 96-well plate (e.g., Perkin Elmer, 6005680). The electronic controller 155 collects luminescence data from each well using an Envision plate reader (e.g., Perkin Elmer) and normalized against the solvent control to measure ATP content. The electronic controller 155 fits a 4-parameter hill curve to the dose response to determine the EC50 and depth of response.

[5] = system: BT-474 cells; test: CellTiter-Glo (CTG) ATP viability assay, BT-474; format: cell-based; conditions: for Hill Slope / EC50: BT-474, Hill fit; for Min Asymptote: BT-474, Hill fit of luminescence normalized to solvent control, one line per replicate; for DoR CTG: BT-474 cell line, depth of response; for EC50: read-out: log10(EC50) (converted)
In short: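 Cell viability was read as ATP content by CellTiter-Glo luminescence after replacing media with reagent, shaking 20 min and resting 10 min. Signal was normalized to solvent control, and a 4-parameter Hill fit to the dose response gave EC50 and depth of response.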

[6] = BT-474, 24 h, read-out: log10(EC50), 24 h QPI, BT-474, Hill fit (converted)
[7] = MCF7, 72 h, 72 h CTG, MCF-7, Hill fit, read-out: log10(EC50) (converted)
[8] = Homo sapiens, BT-474, 24 h, 24 h CTG

With `CC(=O)c1c(C)c2cnc(Nc3ccc(N4CCNCC4)cn3)nc2n(C2CCCC2)c1=O` [Palbociclib] the “Max Asymptote” value ([1]; 24 h QPI) was 0.03459 and 0.03302 and 0.02322, the “Min Asymptote” value ([1]; 24 h QPI) was 0.004781 and −0.01622 and 0.01166 and the “Max Asymptote” value ([1]; 72 h QPI) was −2.92E−05 and 0.006396 and 0.007784. The “Min Asymptote” value ([1]; 72 h QPI) was 0.03469 and 0.03153 and 0.02663, the “DoR QPI” value [1] was 0.6 and the “ToR 20 μM” value [1] was 1.6. For the same compound, the “Max Asymptote” value ([2]; 24 h QPI) was 0.02169, the “Min Asymptote” value ([2]; 24 h QPI) was 0.01657 and 0.02043 and the “Hill Slope” value ([2]; 24 h QPI) was 1.6152 and 1.0687. For the same compound, the “Max Asymptote” value ([2]; 72 h QPI) was 0.009479 and 0.01292, the “Min Asymptote” value ([2]; 72 h QPI) was 0.01776 and 0.02128 and the “DoR QPI” value [2] was 1.0. For the same compound, the “ToR 20 μM” value [2] was 4.4, the “Max Asymptote” value ([3]; 24 h QPI) was 0.01082 and 0.008556 and 0.008815 and the “Min Asymptote” value ([3]; 24 h QPI) was −0.01762 and −0.0277 and −0.01394. For the same compound, the “Hill Slope” value ([3]; 24 h QPI) was 2.2846 and 1.7745 and 2.7163, the “log10(EC50)” value ([3]; 24 h QPI) was −1.2331 and −1.2554 and the “Max Asymptote” value ([3]; 72 h QPI) was −0.01228 and −0.0216 and −0.01047. For the same compound, the “Min Asymptote” value ([3]; 72 h QPI) was 0.008887 and 0.008838 and 0.006465, the “log10(EC50)” value ([3]; 72 h QPI) was −1.2071 and −1.2126 and the “DoR QPI” value [3] was 1.6. For the same compound, the “ToR 20 μM” value [3] was −3.0, the EC50 [3, 6] was 13.9 µM and the EC50 ([3]; BT-474, 72 h, read-out: log10(EC50), 72 h QPI, BT-474, Hill fit (converted)) was 12.3 µM. The pEC50 [3] was 4.93, the “Hill Slope” value ([4]; 72 h CTG, MCF-7, Hill fit) was 0.7617 and 0.9004 and the “log10(EC50)” value ([4]; 72 h CTG, MCF-7, Hill fit) was −0.1876. For the same compound, the “Min Asymptote” value ([4]; 72 h CTG) was 0.1244 (2×) and 0.221, the EC50 [4, 7] was 1.62 µM and the “DoR CTG” value ([4]; CellTiter-Glo) was 1.0. For the same compound, the “Hill Slope” value ([5]; 24 h CTG) was 6.945, the “Min Asymptote” value ([5]; 24 h CTG) was 0.2202 and the “Hill Slope” value ([5]; 72 h CTG) was 5.467 and 7.802. For the same compound, the “Min Asymptote” value ([5]; 72 h CTG) was 0.01628 and 0.01895, the “DoR CTG” value ([5]; CellTiter-Glo) was 0.9 and the EC50 [5, 8] was 14.2 µM.

With `CC[C@]1(O)C[C@@H]2CN(CCc3c([nH]c4ccccc34)[C@@](C(=O)OC)(c3cc4c(cc3OC)N(C)[C@H]3[C@@](O)(C(=O)OC)[C@H](OC(C)=O)[C@]5(CC)C=CCN6CC[C@]43[C@@H]65)C2)C1` [Vinblastine] the “Max Asymptote” value ([1]; 24 h QPI) was 0.02419 and 0.02824 and 0.03124, the “Min Asymptote” value ([1]; 24 h QPI) was 0.0149 and 0.01503 and 0.01517 and the “Max Asymptote” value ([1]; 72 h QPI) was 0.007654 and 0.0105 and 0.007938. The “Min Asymptote” value ([1]; 72 h QPI) was 0.03001 and 0.01871 and 0.03086, the EC50 ([1]; Homo sapiens, MDA-MB-231, MDA-MB-231 cell line, EC50 of the standard deviation, read-out: EC50, SD (converted)) was 14.9 µM and the pEC50 ([1]; Homo sapiens, MDA-MB-231, MDA-MB-231 cell line, QPI growth rate, read-out: EC50, QPI) was 6.40. The “growth rate and heterogeneity over time” value ([1]; MDA-MB-231) was “decrease in growth rate and heterogeneity simultaneously”, the “growth rate and heterogeneity over time” value ([1]; MDA-MB-231, 0.4 μM) was “decrease in growth rate and heterogeneity simultaneously” and the “growth rate and heterogeneity over time” value ([1]; MDA-MB-231, 2 μM) was “decrease in growth rate and heterogeneity simultaneously”. The “growth rate and heterogeneity over time” value ([1]; MDA-MB-231, 20 μM) was “decrease in growth rate and heterogeneity simultaneously”, the “growth rate and heterogeneity as concentration increases” value ([1]; MDA-MB-231, FIG. 22) was “decrease in growth rate and heterogencity simultaneously” and the “growth rate and heterogeneity over time” value ([1]; MDA-MB-231, lowest concentrations, FIG. 21 G-H) was “growth rate decreases over time with little change in heterogeneity”. The “DoR QPI” value [1] was 0.8, the “ToR 20 μM” value [1] was 4.7 and the “Max Asymptote” value ([2]; 24 h QPI) was 0.01958. For the same compound, the “Min Asymptote” value ([2]; 24 h QPI) was 0.005796, the “Hill Slope” value ([2]; 24 h QPI) was 3.2016 and the “Min Asymptote” value ([2]; 72 h QPI) was 0.01979 and 0.02842 and 0.02817. The “Hill Slope” value ([2]; 72 h QPI) was 0.3759 and 0.3808 and 0.4308, the EC50 ([2]; Homo sapiens, MCF7, 24 h, read-out: log10(EC50), 24 h QPI, MCF-7, Hill fit (converted), EC50 in μM per Table 1) was 0.00154 µM and the pEC50 ([2]; Homo sapiens, MCF7, read-out: EC50, QPI, MCF-7 cell line, QPI growth rate) was 6.52. The “DoR QPI” value [2] was 0.4, the “ToR 20 μM” value [2] was −3.0 and the “Max Asymptote” value ([3]; 24 h QPI) was 0.007582. The “Min Asymptote” value ([3]; 24 h QPI) was −0.004812, the “Hill Slope” value ([3]; 24 h QPI) was 0.4052 and the “Max Asymptote” value ([3]; 72 h QPI) was −0.001678 and −0.002248. For the same compound, the “Min Asymptote” value ([3]; 72 h QPI) was 0.002895 and 0.003538, the “Hill Slope” value ([3]; 72 h QPI) was 2.4178 and 1.3815 and the “growth rate and heterogeneity over time” value ([3]; BT-474, 0.0016 μM) was “decrease in growth rate at constant heterogeneity that is greater than the control”. The “growth rate and heterogeneity over time” value ([3]; BT-474, 0.016 μM) was “decreased growth rate and increased heterogeneity”, the “growth rate and heterogeneity over time” value ([3]; BT-474, 0.4 μM) was “reduced growth rate at the same level of heterogeneity as the control” and the “average growth rate over time” value ([3]; BT-474, 20 μM) was “slowly decreases over 12-60 h of treatment”. For the same compound, the “growth rate and heterogeneity over time” value ([3]; BT-474, 20 μM) was “decreases, while the heterogeneity for both populations increases”, the “change of population spread (SD) of SGR” value ([3]; BT-474, 20 μM, with significant decrease in mean response) was “no significant change to the spread” and the “response of growth rate and heterogeneity to treatment” value ([3]; BT-474, FIG. 5E, 22, 23) was “both reduced growth rate and slightly increased heterogeneity”. The “growth rate and heterogeneity as concentration increases” value ([3]; BT-474, FIG. 22) was “decrease in growth rate as concentration increases while heterogeneity remains constant”, the “DoR QPI” value [3] was 2.8 and the “ToR 20 μM” value [3] was 4.9. For the same compound, the EC50 [3, 6] was 48.8 µM, the pEC50 [3] was 4.83 and the “Hill Slope” value ([4]; 72 h CTG, MCF-7, Hill fit) was 0.2572 and 0.2217. The “log10(EC50)” value ([4]; 72 h CTG, MCF-7, Hill fit) was 2.689, the “Min Asymptote” value ([4]; 72 h CTG) was 4.32E−11 (2×) and 1.18E−11 and the EC50 [4, 7] was 0.00215 µM. For the same compound, the EC50 ([4]; MCF7, MCF-7 cell line, CellTiter-Glo, read-out: EC50, CTG (converted)) was 1.6 µM, the “DoR CTG” value ([4]; CellTiter-Glo) was 0.8 and the “Hill Slope” value ([5]; 24 h CTG) was 0.3445. For the same compound, the “Min Asymptote” value ([5]; 24 h CTG) was 0.5659, the “Hill Slope” value ([5]; 72 h CTG) was 0.1 and the “Min Asymptote” value ([5]; 72 h CTG) was 0.06356. For the same compound, the “DoR CTG” value ([5]; CellTiter-Glo) was 1.0, the EC50 [5, 8] was 1.83 µM and the EC50 ([5]; Homo sapiens, BT-474, 72 h, 72 h CTG) was 0.00766 µM. For the same compound, the pEC50 ([5]; Homo sapiens, BT-474, BT-474 cell line, CellTiter-Glo, read-out: EC50, CTG) was 5.19.
